Data reported in patent publication US20230190887A1, “TARGETING G3BP AGGREGATION TO PREVENT NEURODEGENERATION” (priority 2019, published 2023).
“Also recorded” adds a separate entry of the source. Like-named read-outs stand apart in the source and are kept apart here.

How the values were obtained:
[1] = target: HuR (ELAVL1), endogenous rat protein in axons of cultured adult DRG neurons (rat) (UniProt B5DF91); test: proximity ligation assay in axons of fixed rat DRG neurons
[2] = target: DCP1A, endogenous rat protein in axons of cultured adult DRG neurons (rat) (UniProt D4AE80); test: as above
[3] = system: DRG neurons; test: Axon growth in dissociated DRG cultures; assay type: cell-based, rat; settings: 10 μM Tat-fused peptide added to DRG cultures immediately after plating
Protocol: Cell culture. For primary neuronal cultures, L4-5 DRG were harvested in Hybernate-A medium (BrainBits) and then dissociated as described. After centrifugation and washing in DMEM/F12 (Life Technologies), cells were resuspended in DMEM/F12, 1×N1 supplement (Sigma), 10% fetal bovine serum (Hyclone), and 10 μM cytosine arabinoside (Sigma). Dissociated DRGs were plated immediately on laminin/poly-L-lysine-coated coverslips or transfected (see below) and then plated on coated coverslips.
[…] Neurite outgrowth was assessed 24 h after addition of peptides. For the cortical cultures, 10 μM peptide was applied to the axonal compartment at 3 d in vitro (DIV) and axonal growth was assessed at 6 DIV. For iMotor neurons, 20 μM peptides were immediately added and neurite growth was assessed 24 h later.
For neurite outgrowth, images from 60 h DRG cultures were analyzed for neurite outgrowth using WIS-Neuromath. Axon morphology was visualized using GFP and/or NF immunofluorescence as described. Differentiated hiPSC neuron image acquisition and neurite length quantification was performed using Arrayscan XTI (Thermo Fisher).

[4] = system: G3BP1 aggregates in E12.5 motor neurons; test: Endogenous G3BP1 aggregates in MPP+-treated motor neurons; assay type: cell-based, mouse; settings: 100 μM MPP+ alone vs control
Protocol: Previous studies have shown that, exposure of midbrain neurons results in formation of stress granules. To test whether treatment of motor neurons with mitotoxin MPP+ results in the formation of stress granules the inventors stained the MPP+-treated neurons for G3BP1 protein.
(A) Quantification of mitotoxin/neurotoxin MPP+-induced degeneration of DIV7 E12.5 motor neuron neurites after exposure of cultures to 100 μM MPP+ and either 10 μM 190-208 G3BP1 or 168-189 control peptide. As controls, neurons treated with solvents were used. (B) Representative images of G3BP1 (green) and NF-labeled (red) E12.5 motor neurons under control or after treatment with 100 μM MPP+ [scale bar=10 μm]. (C) distribution of sizes of endogenous G3BP1 aggregate per 100 μm neurite is shown as indicated bins from motor neurons cultures as treated in (B). (N≥80 neurites over three repetitions; by one-way ANOVA with Tukey HSD post-hoc). […] (D) Endogenous G3BP1 aggregate sizes per 100 μm neurite indicated as bins for motor neurons either untreated or treated with MPP+ alone or with addition of 10 μM 190-208 G3BP1 or 168-189 control peptide. […] (N≥90 over 3 cultures; by one-way ANOVA with Tukey HSD post-hoc)

[5] = system: G3BP1 aggregates in midbrain neurons; test: Endogenous G3BP1 aggregates in MPP+-treated midbrain neurons; assay type: cell-based, rat; settings: MPP+ alone
Description: Given that the G3BP1 190-208 peptide prevents degeneration induced by treatment with neurotoxins such as MPP+ and Aβ oligomer and decreases G3BP1 aggregates formed due MPP+ and Aβ treatment.
(A) Size of endogenous G3BP1 aggregates per 100 μm of neurite is shown as indicated bins from midbrain cultures under control conditions and after treatment with MPP+alone or with 190-208 G3BP1 or 168-189 peptides. (B) Size distribution of endogenous G3BP1 aggregates per 100 μm of neurite is shown from cortical neurons treated with 1 μM Aβpeptide or with […] 190-208 G3BP1 or 168-189 control peptide. Non-treated neurons were used as a control. […] (N≥90 over 3 cultures; by two-way ANOVA with Tukey HSD post-hoc).

[6] = system: G3BP1, TIA1, FMRP, FXR, TDP43 and FUS-TLS aggregates in E18 midbrain neurons; test: RNA binding protein aggregates along axons of MPP+-treated midbrain neurons; assay type: cell-based, rat; settings: 100 μM MPP+ 6 hours
Protocol: FIGS. 14A-14F show PD-causing MPP^+ increases RNA binding protein aggregation. Representative confocal images for G3BP1 (magenta), FMRP (green), FXR (red) and neurofilament immunoreactivity along axons for E18 midbrain neuron cultures (7 DIV)±100 μM MPP^+ for 6 hours are shown in FIG. 14A. […] Quantifications for colocalization of FMRP, FXR, TDP43, FUS-TLS and TIA1 with G3BP1 in axons of E18 midbrain neurons treated. as in FIG. 14A are shown as average Pearson's coefficient±SEM shown in FIG. 14E.

[7] = system: MN axons; assay type: cell-based, mouse
[8] = system: HB9::GFP MN axons; assay type: cell-based, mouse
[9] = system: TIA1, G3BP1 and TDP43 granules in E12.5 motor neurons; test: Stress granule protein granules in neurites of arsenite-treated motor neurons; assay type: cell-based, mouse
Description: To further evaluate whether mutant TIA1 and TDP43 protein aggregates are affected by G3BP1 190-208 peptide, the inventors expressed the mutant proteins in embryonic motor neurons and assessed granules formed in neurites with or without arsenite treatment either in the presence of G3BP1 190-208 or control 168-189 peptide.
FIG. 6: Cell permeable G3BP1 190-208 peptide decreases granules formed by endogenous TIA1 and TDP43 and exogenous TDP43 and TIA1 mutants in motor neurons after sodium arsenite exposure. (A) Embryonic motor neurons isolated from E12.5 mouse embryos were exposed to sodium arsenite (0.5 mM) for 30 minutes and then treated with 10 μM 190- 208 or […] peptide. After fixation endogenous TIA1 was visualized by immunostaining. The number of TIA1 granules greater than 2 μm^2 per 100 μm of neurite were measured. (B) E12.5 motor neurons were treated as described in (A) and immunostaining was used to detect endogenous G3BP1 protein. The number of G3BP1 granules greater than 2 μm^2 per 100 μm of neurite were measured. […] (C) E12.5 motor neurons expressing TIA1-GFT or ALS/FTD-associated mutants TIA1-A381T, TIA1-E384K were treated with sodium arsenite (0.5 mM) for 30 minutes followed by treatment with either 10 μM 190-208 G3BP1 or 168-189 control peptide. The number of cells containing TIA1-GFP puncta were measured 2 μm^2 per 100 μm of neurite and results are reported relative to non-treated controls. The number of TIA1-GFP granules in neurites decreased for WT and ALS/FTD mutants after treatment with 190-208 G3BP1 as compared to the 168-189 control peptide treated cells. (I)) E12.5 motor neurons expressing flag-tagged wildtype TDP43 or ALS-associated mutants TDP43-M337V and TDP43-Q331.K were treated with sodium arsenite (0.5 mM) for 30 minutes followed by treatment with either 10 μM 190-208 G3BP1 or 168189 control peptide. Flag-TDP43 was detected by immunostaining using the anti-flag-antibody. The number of flag-TDP43 granules greater than 2 μm^2 were measured per 100 μm of neurite and the results are reported relative to non-treated controls. The number of Flag-TDP43 granules in neurites were decreased after treatment with 190-208 G3BP1 peptide as compared to the 168-189 control peptide in both WT and ALS/FTD mutants expressing cells. ([…] over 3 cultures; by two-way ANOVA with Tukey HSD post-hoc),

[10] = system: wild-type or ALS/FTD-associated mutant (P362L, A381T, E384K) TIA1-GFP in HEK cells; test: TIA1-GFP aggregates in arsenite-treated HEK cells; assay type: cell-based
Description: The inventors tested whether the G3BP1 190-208 peptide would prevent the aggregation of granules formed by TIA1 and TDP43 mutant proteins associated with ALS and FTD. […] Next, we treated HEK cells expressing wild-type and or ALS/FTD-associated mutants (P362L, A381T, or E384K)TIA1, with arsenite a potent inducer of SG aggregation, in addition to either G3BP1 190-208 peptide or control G3BP1 168-189 peptide.
FIG. 5: Cell permeable G3BP1 190-208 peptide decreases TIA1-GFP puncta formed due to expression of disease causing TIA1 mutants. (A) Representative images of HEK cells transfected with GFP-tagged wild-type or ALS/FTD-associated mutants (P362L, A381T, or E384K) TIA1. Arrows show TIA1-GFP puncta. (B) Quantification of the percentage of cells with TIA1-GFP puncta greater than 2 μm^2 area in transfected cells relative TIA1-WT-GFP expressing cells. Consistent with previous studies, ALS/FTD- associated TIA1 mutants show increased number of TIA1-GFP puncta as compared to WT-TIA1. (C) HEK cells expressing TIA1-GFP or ALS/FTD-associated mutants TIA1-P362L, TIA1-A381T, TIA1-E384K were treated with sodium arsenite (0.5 mM) for 30 minutes followed by treatment with either 10 μM 190-208 G3BP1 or 168-189 control peptide. The number of cells containing TIA1-GFP puncta were measured and results are reported relative to non-treated controls. Number of HEK cells with TIA1-GFP granules both for WT and ALS/FTD mutants decreased after treatment with 10 μM 190-208 G3BP1 as compared to the 168-189 control peptide treated cells. (N≥90 over 3 cultures; by two-way ANOVA with Tukey HSD post-hoc). Scale bar: 20 μm.

[11] = system: G3BP1-mCherry aggregates in DRG axons; test: Live cell imaging of G3BP1-mCherry granules; assay type: cell-based, rat; settings: 10 μM peptide, 15 min
Protocol: Live cell imaging for G3BP1-mCherry granules. DRG neurons were transfected with G3BP1-mCherry, and 36 h later distal axons were imaged using Leica SP8X confocal microscope with environmental chamber maintained at 37° C., 5% CO2 (with 63×/1.4 NA oil immersion objective). G3BP1-mCherry signals were imaged as single optical planes in the axon shaft every 2 s for 100 frames (at 540 nm excitation and 23% white light laser power; 565-597 nm emission). To study the effect of the G3BP1 190-208 or 168-189 peptide, 10 μM FITC-conjugated peptide was added to the media and 15 min later imaging was continued.
For quantitation of G3BP1-mCherry aggregates density and size, a 100 μm of the axon shaft was considered (≥200 μm from cell body). Thresholding was applied to acquired image sequences using ImageJ to generate binary masks.
ImageJ particle analyzer was used for analysis. G3BP1 aggregates with area≥1 μm^2 were considered as SG-like structures. For analyzing the G3BP1 aggregate velocity, ImageJ Trackmate plug-in was used.

[12] = applied exclusively in axons, NaAsO2 250 μM, Anisomycin 40 μM, Cycloheximide 150 μM
[13] = local axonal administration, Anisomycin 40 μM, Cycloheximide 150 μM, NaAsO2 250 μM

Chain of HuR (ELAVL1), endogenous rat protein in axons of cultured adult DRG neurons (rat) (B5DF91 2-326): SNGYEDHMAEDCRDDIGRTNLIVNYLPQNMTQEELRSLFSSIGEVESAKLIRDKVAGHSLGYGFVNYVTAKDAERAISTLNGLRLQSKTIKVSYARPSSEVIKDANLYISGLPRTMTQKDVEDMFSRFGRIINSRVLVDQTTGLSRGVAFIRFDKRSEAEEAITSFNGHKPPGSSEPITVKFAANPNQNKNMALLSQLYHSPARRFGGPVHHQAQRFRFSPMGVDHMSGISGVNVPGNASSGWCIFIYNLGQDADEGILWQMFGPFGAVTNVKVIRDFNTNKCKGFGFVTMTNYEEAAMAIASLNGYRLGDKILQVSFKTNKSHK

## G3BP1 (Ras GAP SH3 domain binding protein 1), endogenous rat protein in axons of cultured adult DRG neurons (from UniProt D3ZYS7 1-465)
[1]
  PLA signals per area: 0.038
[2]
  PLA signals per area: 0.027 signals/m^2

## EESEEEVEEPEENQQSPEVV-YGNKKNNQNNN (EESEEEVEEPEENQQSPEVVYGNKKNNQNNN; listed as Rattus norvegicus) [147-166, cell-permeable Tat fusion peptide corresponding to residues 147-166 of rat G3BP1]
[3]
  axon length: increased axon length

## C[n+]1ccc(-c2ccccc2)cc1 [MPP+, 1-methyl-4-phenylpyridinium, reference compound]
[4]
  endogenous G3BP1 aggregates: increase in G3BP1 aggregates; also recorded: formation of larger G3BP1 granules
[5]
  endogenous G3BP1 aggregates: increase in endogenous G3BP1 aggregates
[6]
  TIA1, FMRP, FXR, TDP43 and FUS-TLS colocalization with G3BP1: significant increase
  aggregate sizes of G3BP1, TIA1, FMRP, FXR, TDP43 and FUS-TLS along axons: significantly increases the aggregate sizes
  overall levels of these proteins: without any change in overall levels

## COc1ccc(C[C@H]2NC[C@H](O)[C@H]2OC(C)=O)cc1 [Anisomycin]
[7]; [12]
  axonal translation (OPP puncta): major decrease in axonal translation
[8]; [13]
  mitochondrial membrane potential (TMRE): notable reduction in mitochondrial membrane potential

## sodium arsenite [NaAsO2, reference compound]
[7]
  axonal translation (OPP puncta): major decrease in axonal translation
[9]; arsenite alone
  size of endogenous TIA1 and G3BP1 aggregates: increase in the size of endogenous TIA1 and G3BP1 aggregates
[9]; arsenite alone, WT and mutant TIA1-GFP
  number of larger TIA1-GFP granules (>2 μm^2): increase in the number of larger granules
[9]; arsenite alone, WT and mutant flag-TDP43
  number of large flag-TDP43 aggregates (>2 μm^2): increased number of large flag-TDP43 aggregates
[8]
  mitochondrial membrane potential (TMRE): notable reduction in mitochondrial membrane potential
[10]; sodium arsenite 0.5 mM alone, WT and mutants
  size of TIA1 aggregates: increases size of TIA1 aggregates

## C[C@@H]1C[C@@H]([C@H](O)CC2CC(=O)NC(=O)C2)C(=O)[C@@H](C)C1 [Cycloheximide]
[7]; [12]
  axonal translation (OPP puncta): major decrease in axonal translation
[8]; [13]
  mitochondrial membrane potential (TMRE): notable reduction in mitochondrial membrane potential

## DDSGTFYDQTVSNDLEEHLEEP-YGNKKNNQNNN [168-189 peptide, reference compound]
[3]
  axon length: lacked activity
[11]
  density of axonal G3BP1-mCherry aggregates along 100 μm axon: no change in SG density
  size of G3BP1-mCherry aggregates (SG-like structures): modest but insignificant decrease in SG size
[9]; WT and mutant TIA1-GFP, sodium arsenite 0.5 mM 30 minutes, then 10 μM peptide
  number of large TIA1-GFP granules (>2 μm^2) in neurites: no such effect
[10]; sodium arsenite 0.5 mM 30 minutes, then 10 μM peptide, WT and mutant TIA1
  size of TIA1 aggregates: no such change in aggregate size
